Measurements reported in patent publication US20070238184A1, “Amyloid beta protein channel structure and uses thereof in identifying potential drug molecules for neurodegenerative diseases” (The Regents of the University of California, priority 2005, published 2007).
No end group written: not given here.

Key:
[1] = target: T1, channels formed by the 42-residue AbP1-42 (Homo sapiens, UniProt P05067); test: Liposomes reconstituted with AbP1-42 channels, channel block; assay type: biochemical
T1 construct: the channels formed by the 42-residue AbP1-42
Text: (§1) In certain embodiments binding of test agents can be detected by detecting alterations (e.g., decrease) of ion (e.g., Ca^2+) uptake by a cell, oocytes, or liposome in the presence of the test agent(s)-uptake in to the liposomes. This can readily be detected using for example a radio-isotope (e.g., 45Ca^2+) or a calcium sensitive dye (e.g., arsenazo III (AIII), Fura-2, Fluo-3, Fluo-4, Calcium green, etc.).
(§2) Using liposomes reconstituted with AbP channels in the membrane, one can screen for compounds that block AbP channels.

AbP ion channels [2] = test: Ca2+ influx through AbP ion channels incorporated into unilaminar liposomes; assay type: biochemical, human
Text: Consistent with these discoveries, we have shown that AbP ion channels mediate Ca^2+ influx when incorporated into unilaminar liposomes, and the Ca^2+ influx was blocked by Zn^2+ and an anti-AbP antibody.

AbP ion channels [3] = test: AbP-induced toxicity in cultured cells; assay type: cell-based; conditions: blocking Ca2+ influx through AbP ion channels
[4] = target: T2, channels formed by the 40 residue AbP1-40 (Homo sapiens, UniProt P05067); test: 45Ca2+ uptake into liposomes reconstituted with AbP1-40 channels; assay type: biochemical
T2 construct: the channels formed by the 40 residue AbP1-40
Text: as §1, §2

[5] = IV curve conductance across lipid bilayer suspended over silicon chip nanopore; conditions: 0.2 mg/ml, 135 mM KCl, bilayer only 0.025 nS
Experimental: In order to study the sealing effect of the bilayer over the nanopores in the chip, lipid vesicles were deposited over to chips. After 30 minutes for a bilayer to form from vesicular fusion, the excess unadsorbed lipids and vesicles were rinsed away from the surface. Bulk electrical conductance across the supported nanopore chip and the overlying adsorbed lipid bilayer was measured using a drop of 135 mM KCl solution on top of the chip in which the AFM tip holder assembly was submerged and 135 mM KCl under the nitride membrane. The IV curve measured was near flat and indicates a conductance across the bilayer of 0.025 nS. To check for the possibility of using the nanopore chip to measure ion channel conductance, Gramicidin (a known ion channel forming peptide) was added to the solution at a concentration of 0.2 mg/ml. The effect of Gramicidin on conductance is shown in FIG. 18, while applying a 1V bias to the bottom electrode under the silicon nitride membrane.
For all samples, nano pore membranes were mounted on plastic liquid cells to exchange fluid above or below the membrane. IV curves were obtained in 135 mM KCl solution. Current was measured using the conductive AFM setup with the cantilevered tip holder as an electrode on the top and a reference electrode under the pore-chip (FIG. 20). In absence of an insulating coat, when buffer was present on both sides of the chip, current is measured through the complete tip holder clip. To image current only through the AFM tip apex, conductance was measured with 135 mM KCl solution only under the pore chip and a flow of humid air was maintained over the top surface. This set up also ensured that, by allowing only a local water meniscus between tip and the sample, only the local conductance through each pore was measured.
AFM was also used to image pores after deposition of lipid vesicles (DOPC) prepared by previously described method (Lin et al. (1999) Biochemistry, 38: 11189-11196). Briefly, vesicles were formed by drying 1 mg of DOPC lipid in a glass tube, kept in a desiccator overnight, and rehydrated in buffer with occasional sonication. For vesicle deposition a droplet (50 micro liter, 1 mg/ml) of vesicles was placed on the pore chip, allowed to adsorb for 30 minutes, and rinsed with buffer. After bilayer deposition and before IV measurements, ionic strength was brought back to 135 mM KCl both on top as well as below the pore chip to keep the bilayer hydrated properly, and current was measured through the tip holder. Once a proper seal was achieved by the bilayer, Gramicidin, an ion channel forming peptide (dissolved in milliQ water with 135 mM KCl), was added to the buffer solution, and the current was measured as a function of time while gramicidin interacted with the bilayer.

[6] = Single-channel current recording in planar phospholipid bilayer membranes; conditions: voltage clamp, peptide added to one side, pH 7.4
Experimental: Planar phospholipid bilayer membranes were formed as described by Mirzabekov et al. (1999) Meth. Enzymol. 294: 61-74. A bubble of lipid dissolved in heptane was placed at the end of a small (100-300 μm) Teflon tube. Silver/silver chloride electrodes connected the aqueous components bounding the membrane to a voltage clamp. Ion-channel currents through the membrane were recorded by an Axopatch amplifier (Axon Instruments, Sunnyvale, Calif.). Data were filtered at 1 kHz and stored on VHS tape. Membrane capacitance and resistance were monitored continuously to ensure the formation and stability of reproducible membranes and the proper membrane thickness. […] Peptide samples were introduced by perfusing the aqueous solution bounding one side of the membrane.

T1 sequence (P05067 672-713 limits assumed): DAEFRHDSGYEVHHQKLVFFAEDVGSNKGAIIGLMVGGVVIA
T2 sequence (P05067 672-711 limits assumed): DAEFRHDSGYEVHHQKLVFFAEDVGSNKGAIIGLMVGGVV

## NC(CO)(CO)CO [Tris]
[1]
  block of AbP1-42 channels: blocked

## [Zn+2] [Zn^2+]
AbP ion channels [2]
  block of Ca2+ influx mediated by AbP ion channels: blocked
AbP ion channels [3]
  effect on AbP-induced toxicity: inhibited AbP-induced toxicity
[4]
  block of AbP1-40 channels and inhibition of 45Ca2+ uptake into the liposomes: blocks the channels
[1]
  block of AbP1-42 channels: blocked

## Gramicidin
[5]; 10 seconds after addition
  conductance after addition of Gramicidin: 0.25 nS
[5]; 2 minutes after addition
  conductance after addition of Gramicidin: 0.5 nS
[5]; 4 minutes after addition
  conductance after addition of Gramicidin: 1 nS
[5]; 4 minutes after addition, listed as gramicidin
  conductance after addition of Gramicidin: roughly 1 nS

## NAC: NAC (α-synuclein 60-95)
[6]
  induction of single-channel ion currents / conductances: Current jumps corresponding to the opening or closing of individual ion channels can be observed

## amyloid-β(1-40) [Aβ(1-40)]
[6]
  induction of single-channel ion currents / conductances: Current jumps corresponding to the opening or closing of individual ion channels can be observed

## islet amyloid polypeptide (KCNTATCATQRLANFLVHSSNNFGAILSSTNVGSNTY; not fully specified (C-terminus, bridges); cysteine pairing not given here; UniProt P10997 34-70, looked up) [Amylin, amyloid peptide synthesized by N-t-butyloxycarbonyl chemistry]
[6]
  induction of single-channel ion currents / conductances: Current jumps corresponding to the opening or closing of individual ion channels can be observed
